Values quoted from earlier work as cited in patent US20140228389A1, “DRY POWDER COMPOUND FORMULATIONS AND USES THEREOF” (Wyeth, LLC, priority 2006, published 2014).

Assays:
opioid receptors = details: found in U.S. Ser. No. 11/441,395 and 11/441,452
[1] = white crystalline powder from Mallinckrodt Pharmaceuticals

Row | Compound | opioid activity (agonist or antagonist) (opioid receptors) | solubility in water [1]
1 | C[N+]1(CC2CC2)CCC23c4c5ccc(O)c4OC2C(=O)CCC3(O)C1C5 (single isomer, unassigned) [R—N isomer of methylnaltrexone] | opioid antagonist | 
2 | C[N+]1(CC2CC2)CC[C@]23c4c5ccc(O)c4O[C@H]2C(=O)CC[C@@]3(O)[C@H]1C5.[Br-] (stereo partly drawn) [Methylnaltrexone, Methylnaltrexone bromide] |  | freely soluble in water
3 | C[N+]1(CC2CC2)CC[C@]23c4c5ccc(O)c4O[C@H]2C(=O)CC[C@@]3(O)[C@H]1C5.[Br-] (stereo partly drawn) [S—N isomer of methylnaltrexone, S-Methylnaltrexone bromide] | opioid agonist | 
